Survival and survival data for 10 molecules are collected here from ChEMBL document CHEMBL4602679, “Polyesterified Sesquiterpenoids from the Seeds of Celastrus paniculatus as Lifespan-Extending Agents for the Nematode Caenorhabditis elegans” (2020).

Experiment [1] has as its system Caenorhabditis elegans. In words: Induction of lifespan expansion in late L4 larval stage of Caenorhabditis elegans Bristol N2 assessed as survival time at 50 uM (reference value: 15.19 =/- 0.53 day). In kind it is functional.
The subject of experiment [2] is Caenorhabditis elegans. In words: Induction of lifespan expansion in late L4 larval stage of Caenorhabditis elegans Bristol N2 assessed as increase in survival time at 50 uM relative to control. It counts as functional.

Turning to `CC(=O)OC[C@@]12[C@@H](OC(C)=O)CC[C@@H](C)[C@@]13C[C@@H]([C@H](OC(C)=O)[C@@H]2OC(=O)c1ccoc1)C(C)(C)O3`, the Survival in experiment [1] was 16.38 days.

Turning to `CC(=O)OC[C@@]12[C@@H](OC(C)=O)CC[C@@H](C)[C@]13OC(C)(C)[C@H]([C@@H](OC(C)=O)[C@@H]2OC(=O)c1ccoc1)[C@H]3OC(C)=O`, the survival at 50 µM in experiment [2] turned out to be 11%. In experiment [1], the Survival is 16.83 days.

On to `CC(=O)OC[C@@]12[C@@H](OC(C)=O)CC[C@](C)(O)[C@]13OC(C)(C)[C@H]([C@H](OC(=O)c1ccoc1)[C@@H]2OC(=O)c1ccoc1)[C@H]3OC(C)=O`, for which the survival at 50 µM in experiment [2] was found to be 14%. Further, the Survival in experiment [1] was 17.39 days.

In the case of `CC(=O)OC[C@@]12[C@@H](OC(C)=O)CC[C@](C)(O)[C@]13OC(C)(C)[C@H]([C@H](OC(C)=O)[C@H]2OC(=O)c1ccoc1)[C@H]3OC(C)=O`, the survival at 50 µM in experiment [2] was found to be 16%. Also, the Survival in experiment [1] worked out at 17.56 days.

For `CC(=O)OC[C@@]12[C@@H](OC(C)=O)CC[C@](C)(O)[C@]13OC(C)(C)[C@H]([C@@H](OC(C)=O)[C@@H]2OC(=O)c1ccoc1)[C@H]3OC(C)=O`, the Survival in experiment [1] was determined as 15.29 days.

For the molecule `CC(=O)OC[C@@]12[C@@H](OC(C)=O)CC[C@@H](C)[C@]13OC(C)(C)[C@H]([C@H](OC(C)=O)[C@H]2OC(=O)c1ccccc1)[C@H]3OC(C)=O`, the survival at 50 µM in experiment [2] was found to be 17%. Moreover, in experiment [1], the Survival was 17.77 days.

Regarding `CC(=O)OC[C@@]12[C@@H](OC(C)=O)CC[C@@H](C)[C@@]13C[C@@H]([C@H](OC(C)=O)[C@H]2OC(=O)c1ccoc1)C(C)(C)O3`, the survival at 50 µM in experiment [2] is 12%. Further, the Survival in experiment [1] turned out to be 17 days.

For `CC(=O)O[C@H]1CC[C@](C)(O)[C@]23OC(C)(C)[C@H]([C@H](OC(=O)c4ccoc4)[C@H](OC(=O)c4ccoc4)[C@]12CO)[C@H]3OC(C)=O`, the survival at 50 µM in experiment [2] is 18%. Besides, in experiment [1], the Survival was 18 days.

Take `CC(=O)OC[C@]12[C@@H](OC(=O)c3ccoc3)[C@@H](OC(C)=O)[C@@H]3C[C@]1(OC3(C)C)[C@H](C)C[C@@H](OC(C)=O)[C@@H]2OC(C)=O`: the Survival in experiment [1] was 15.46 days.

Take `CC(=O)OC[C@@]12[C@@H](OC(C)=O)CC[C@](C)(O)[C@]13OC(C)(C)[C@H]([C@H](OC(C)=O)[C@@H]2OC(=O)c1ccoc1)[C@H]3OC(C)=O`: the survival at 50 µM in experiment [2] was 16%. Further, in experiment [1], the Survival stood at 17.67 days.
